The results in this text go back to publication PMC9250534, “Synthesis and direct assay of large macrocycle diversities by combinatorial late-stage modification at picomole scale” (Nature Communications, 2022).

SMILES strings stand for the structures. Numbered stars: 1 amine (or outer) side, 2 acyl side, 3 side chain; on linkers, the order of the positions; unused ones are H or OH. Bridge positions count the residues as written; N and C are the ends. Square brackets hold non-standard residues; d marks the D form. Peptide text beside a SMILES is read from it. * marks the point of attachment. Isoorotoyl = O=C(c1c[nH]c(=O)[nH]c1=O)*; Pyrazinecarbonyl = O=C(c1cnccn1)*; Phenoxyacetyl = O=C(COc1ccccc1)*; Cysteamide = C(CS[*:3])N[*:1]; X3 = O=C(Cc1c[nH]c2ccccc12)*; Mpa = O=C(O)CCS

The assay concerns the target T1, thrombin (Homo sapiens, UniProt P00734).
T1 construct: consists of two polypeptide chains of 36 (light chain) and 259 amino acid
The assay is described as follows: Thrombin inhibition screen of crude macrocycle reactions (residual thrombin activity, fluorogenic substrate Z-Gly-Gly-Arg-AMC). In kind it is biochemical. To be noted: 10 µM macrocycle concentration; crude reactions, Library 1a-l; scaffold AA1-AA2-AA3 combined with 1-16 or '-'. In outline: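 Each crude macrocycle (10 μM) was preincubated 10 min at room temperature with thrombin (2 nM final) in Tris-Cl pH 7.4 containing NaCl, MgCl2, CaCl2, 0.1% BSA, 0.01% Triton X-100 and 0.6% DMSO. Z-Gly-Gly-Arg-AMC (50 μM final) was then added. Inhibition came from fluorescence slopes relative to DMSO-only controls.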
On to `O=C1CCSSCCNC(=O)[C@@H](Cc2ccc(O)cc2)NC(=O)CCNC(=O)[C@H](CCCCNC(=O)c2ccco2)N1` [D1-B2-y/16], for which the “percent residual thrombin activity” value came out at 114.281%.
For `CC(C)CC(=O)NCCCC[C@@H]1NC(=O)CCSSCCNC(=O)[C@H](CO)NC(=O)c2ccc(cc2)CNC1=O` [D1-B3-S/8] the value was 103.332%; for `O=C1CCSSCCNC(=O)[C@H](CO)NC(=O)c2ccc(cc2)CNC(=O)[C@H](CCCCNC(=O)c2c[nH]c(=O)[nH]c2=O)N1` [D1-B3-S/11], 105.178%.
`Cc1nnsc1C(=O)NCCCC[C@@H]1NC(=O)CCSSCCNC(=O)[C@H](CO)NC(=O)c2ccc(cc2)CNC1=O` [D1-B3-S/15]: the “percent residual thrombin activity” value came to 103.115%.
Take `CC(C)CC(=O)NCCCC[C@@H]1NC(=O)CCSSCCNC(=O)[C@@H](Cc2ccc(O)cc2)NC(=O)[C@H]2CCCN(C2)C1=O` [D1-B4-y/8]: the “percent residual thrombin activity” value is on record as 108.143%.
Turning to `O=C1CCSSCCNC(=O)C(Cc2ccc(O)cc2)NC(=O)C2CCCN(C2)C(=O)C(CCCCNC(=O)c2c[nH]c(=O)[nH]c2=O)N1` (stereo not drawn) [D1-B4-y/11], the “percent residual thrombin activity” value was found to be 105.223%.
To `O=C(Cc1c[nH]c2ccccc12)NCCCCC1NC(=O)CCSSCCNC(=O)C(Cc2ccc(O)cc2)NC(=O)C2CCCN(C2)C1=O` (stereo not drawn) [D1-B4-y/12] belongs 103.012%; to `Cc1nnsc1C(=O)NCCCC[C@@H]1NC(=O)CCSSCCNC(=O)[C@@H](Cc2ccc(O)cc2)NC(=O)[C@H]2CCCN(C2)C1=O` [D1-B4-y/15], 108.72%; to `NCCCC[C@@H]1NC(=O)CCSSCCNC(=O)[C@H]2CCCN(C2)C(=O)[C@H](Cc2ccccc2)NC1=O` [D1-F-B4/-], 110.104%.
As to `O=C1CCSSCCNC(=O)C2(CC2)CNC(=O)[C@H](Cc2c[nH]cn2)NC(=O)[C@H](CCCCNC(=O)c2cnccn2)N1` [D1-H-B6/2], the “percent residual thrombin activity” value came to 113.964%.
Regarding `Cc1nnsc1C(=O)NCCCC[C@@H]1NC(=O)CCSSCCNC(=O)C2(CC2)CNC(=O)[C@H](Cc2cnc[nH]2)NC1=O` [D1-H-B6/15], the “percent residual thrombin activity” value is recorded as 113.747%.
On to `NCCCC[C@@H]1NC(=O)CCSSCCNC(=O)C2(CC2)CNC(=O)[C@H](Cc2cnc[nH]2)NC1=O` [D1-H-B6/-], for which the “percent residual thrombin activity” value was 116.392%.
As for `CC[C@H](C)[C@@H]1NC(=O)[C@H](CCCCNC(=O)COc2ccccc2)NC(=O)CCSSCCNC(=O)C2(CC2)CNC1=O` [D1-I-B6/13], the “percent residual thrombin activity” value is recorded as 106.199%.
With `CC[C@H](C)[C@@H]1NC(=O)[C@H](CCCCNC(=O)c2ccco2)NC(=O)CCSSCCNC(=O)C2(CC2)CNC1=O` [D1-I-B6/16], the “percent residual thrombin activity” value is on record as 103.501%.
As to `NC(=O)CCC1NC(=O)C(CCCCNC(=O)c2cnccn2)NC(=O)CCSSCCNC(=O)C2CCCN2C1=O` (stereo not drawn) [D1-Q-B1/2] ([Mpa]K(Pyrazinecarbonyl)QP-Cysteamide; disulfide 1-C; configuration not given here), the “percent residual thrombin activity” value was found to be 104.356%.
For `NC(=O)CC[C@@H]1NC(=O)[C@H](CCCCNC(=O)c2c[nH]c(=O)[nH]c2=O)NC(=O)CCSSCCNC(=O)[C@@H]2CCCN2C1=O` [D1-Q-B1/11] ([Mpa]K(Isoorotoyl)QP-Cysteamide; disulfide 1-C) the value was 109.119%; for `NC(=O)CC[C@@H]1NC(=O)[C@H](CCCCNC(=O)Cc2c[nH]c3ccccc23)NC(=O)CCSSCCNC(=O)[C@@H]2CCCN2C1=O` [D1-Q-B1/12] ([Mpa]K(X3)QP-Cysteamide; disulfide 1-C), 104.82%; for `NC(=O)CC[C@@H]1NC(=O)[C@H](CCCCNC(=O)COc2ccccc2)NC(=O)CCSSCCNC(=O)[C@@H]2CCCN2C1=O` [D1-Q-B1/13] ([Mpa]K(Phenoxyacetyl)QP-Cysteamide; disulfide 1-C), 104.037%.
Take `NCCCC[C@@H]1NC(=O)CCSSCCNC(=O)[C@@H]2CCCN2C(=O)[C@H](CCC(N)=O)NC1=O` [D1-Q-B1/-] ([Mpa]KQP-Cysteamide; disulfide 1-C): the “percent residual thrombin activity” value came out at 108.142%.
For `COc1ccc(C(=O)NCCCC[C@@H]2NC(=O)CCSSCCNC(=O)c3ccc(cc3)CNC(=O)[C@H](CO)NC2=O)cn1` [D1-S-B3/10] the value was 111.469%; for `O=C(COc1ccccc1)NCCCC[C@@H]1NC(=O)CCSSCCNC(=O)c2ccc(cc2)CNC(=O)[C@H](CO)NC1=O` [D1-S-B3/13], 115.568%; for `Cc1nnsc1C(=O)NCCCC[C@@H]1NC(=O)CCSSCCNC(=O)c2ccc(cc2)CNC(=O)[C@H](CO)NC1=O` [D1-S-B3/15], 113.1%.
On to `COc1ccc(C(=O)NCCCC[C@@H]2NC(=O)CCSSCCNC(=O)C3(CC3)CNC(=O)[C@H](CO)NC2=O)cn1` [D1-S-B6/10], for which the “percent residual thrombin activity” value amounted to 102.192%.
For the molecule `O=C1CCSSCCNC(=O)C2(CC2)CNC(=O)[C@H](CO)NC(=O)[C@H](CCCCNC(=O)c2c[nH]c(=O)[nH]c2=O)N1` [D1-S-B6/11], the “percent residual thrombin activity” value was determined as 103.758%.
For `CC(C)CC(=O)NCCCC[C@@H]1NC(=O)CCSSCCNC(=O)C2(CC2)CNC(=O)[C@H](C(C)C)NC1=O` [D1-V-B6/8], the “percent residual thrombin activity” value came out at 110.303%.
For the molecule `CC(C)[C@@H]1NC(=O)[C@H](CCCCNC(=O)c2c[nH]c(=O)cn2)NC(=O)CCSSCCNC(=O)C2(CC2)CNC1=O` [D1-V-B6/9], the “percent residual thrombin activity” value worked out at 106.409%.
For `Cc1nnsc1C(=O)NCCCC[C@@H]1NC(=O)CCSSCCNC(=O)C2(CC2)CNC(=O)[C@H](C(C)C)NC1=O` [D1-V-B6/15], the “percent residual thrombin activity” value was 112.935%.
For `CC(C)[C@@H]1NC(=O)[C@H](CCCCNC(=O)c2ccco2)NC(=O)CCSSCCNC(=O)C2(CC2)CNC1=O` [D1-V-B6/16] the value was 107.867%; for `CC[C@H](C)[C@@H]1NC(=O)CCNC(=O)[C@H](CCCNC(=O)c2ccc(OC)nc2)NC(=O)CCSSCCNC1=O` [D2-B2-I/10], 104.624%.
With `CC[C@H](C)[C@@H]1NC(=O)CCNC(=O)[C@H](CCCNC(=O)c2c[nH]c(=O)[nH]c2=O)NC(=O)CCSSCCNC1=O` [D2-B2-I/11], the “percent residual thrombin activity” value worked out at 113.677%.
For `CC[C@H](C)[C@@H]1NC(=O)CCNC(=O)[C@H](CCCNC(=O)c2ccco2)NC(=O)CCSSCCNC1=O` [D2-B2-I/16] the value was 111.823%; for `O=C1CCSSCCNC(=O)[C@@H](Cc2ccc(O)cc2)NC(=O)CCNC(=O)[C@H](CCCNC(=O)c2ccccc2)N1` [D2-B2-y/1], 109.22%; for `CC(C)CC(=O)NCCC[C@@H]1NC(=O)CCSSCCNC(=O)[C@H](CCC(N)=O)NC(=O)c2ccc(cc2)CNC1=O` [D2-B3-Q/8], 112.114%.
Take `NC(=O)CC[C@@H]1NC(=O)c2ccc(cc2)CNC(=O)[C@H](CCCNC(=O)c2c[nH]c(=O)cn2)NC(=O)CCSSCCNC1=O` [D2-B3-Q/9]: the “percent residual thrombin activity” value was determined as 109.29%.
For `NC(=O)CC[C@@H]1NC(=O)c2ccc(cc2)CNC(=O)[C@H](CCCNC(=O)c2c[nH]c(=O)[nH]c2=O)NC(=O)CCSSCCNC1=O` [D2-B3-Q/11] the value was 114.755%; for `CC(C)CC(=O)NCCC[C@@H]1NC(=O)CCSSCCNC(=O)[C@H](C(C)C)NC(=O)[C@H]2CCCN(C2)C1=O` [D2-B4-V/8], 110.86%.
To `COc1ccc(C(=O)NCCC[C@@H]2NC(=O)CCSSCCNC(=O)[C@H](C(C)C)NC(=O)[C@H]3CCCN(C3)C2=O)cn1` [D2-B4-V/10] belongs 108.833%; to `CC(C)[C@@H]1NC(=O)[C@H]2CCCN(C2)C(=O)[C@H](CCCNC(=O)COc2ccccc2)NC(=O)CCSSCCNC1=O` [D2-B4-V/13], 112.633%; to `CC(C)[C@@H]1NC(=O)[C@H]2CCCN(C2)C(=O)[C@H](CCCNC(=O)c2ccc(Cl)s2)NC(=O)CCSSCCNC1=O` [D2-B4-V/14], 102.581%.
Turning to `O=C1CCSSCCNC(=O)[C@@H](Cc2ccccc2)NC(=O)[C@H]2CCCN(C2)C(=O)[C@H](CCCNC(=O)c2c[nH]c(=O)cn2)N1` [D2-B4-f/9], the “percent residual thrombin activity” value came out at 109.579%.
Consider `COc1ccc(C(=O)NCCC[C@@H]2NC(=O)CCSSCCNC(=O)[C@@H](Cc3ccccc3)NC(=O)[C@H]3CCCN(C3)C2=O)cn1` [D2-B4-f/10], for which the “percent residual thrombin activity” value is listed as 107.675%.
To `O=C1CCSSCCNC(=O)[C@@H](Cc2ccccc2)NC(=O)[C@H]2CCCN(C2)C(=O)[C@H](CCCNC(=O)c2ccc(Cl)s2)N1` [D2-B4-f/14] belongs 82.899%; to `Cc1cc(C(=O)NCCC[C@@H]2NC(=O)CCSSCCNC(=O)[C@H](Cc3cnc[nH]3)NC(=O)c3cccc(c3)CNC2=O)no1` [D2-B5-H/3], 99.7053%; to `O=C(Cc1c[nH]c2ccccc12)NCCC[C@@H]1NC(=O)CCSSCCNC(=O)[C@H](Cc2c[nH]cn2)NC(=O)c2cccc(c2)CNC1=O` [D2-B5-H/12], 99.4462%.
Regarding `O=C(COc1ccccc1)NCCC[C@@H]1NC(=O)CCSSCCNC(=O)[C@H](Cc2cnc[nH]2)NC(=O)c2cccc(c2)CNC1=O` [D2-B5-H/13], the “percent residual thrombin activity” value was found to be 105.187%.
On to `Cc1nnsc1C(=O)NCCC[C@@H]1NC(=O)CCSSCCNC(=O)[C@H](Cc2c[nH]cn2)NC(=O)c2cccc(c2)CNC1=O` [D2-B5-H/15], for which the “percent residual thrombin activity” value came to 105.304%.
As to `O=C1CCSSCCNC(=O)[C@H](Cc2cnc[nH]2)NC(=O)c2cccc(c2)CNC(=O)[C@H](CCCNC(=O)c2ccco2)N1` [D2-B5-H/16], the “percent residual thrombin activity” value came to 101.891%.
For the molecule `CC(C)CC(=O)NCCC[C@@H]1NC(=O)CCSSCCNC(=O)[C@H](Cc2ccc(O)cc2)NC(=O)c2cccc(c2)CNC1=O` [D2-B5-Y/8], the “percent residual thrombin activity” value worked out at 100.592%.
